From patent US20260000692A1, “Substituted N-(Pyridin-2-yl)Acetamide Derivatives as CDK12/13 Inhibitors” (Aurigene Oncology Limited, priority 2022, published 2026)
Read-outs that look alike come from different tables or passages of the source.

Biological target: CDK12 (Homo sapiens, UniProt Q9NYV4)
Assay: Biochemical assay for CDK12 (LANCE TR-FRET, IC50 determination)
Conditions: for IC50: CDK12, IC50 class; for inhibition at 10 µM: read-out: CDK12 % Inhibition @ 10 μM
Outline: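 30 nM CDK12 phosphorylated 100 nM ULight-4E-BP1 (Thr37/Thr46) peptide at 100 µM ATP, as printed, in HEPES pH 7.5 buffer with MgCl2 and DTT. Compound and enzyme were preincubated 60 min, then reacted 60 min at room temperature before stopping with EDTA and Eu anti-phospho antibody. TR-FRET 665/615 ratio gave sigmoidal IC50 fits.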

Sequence of CDK12 (Q9NYV4 whole entry): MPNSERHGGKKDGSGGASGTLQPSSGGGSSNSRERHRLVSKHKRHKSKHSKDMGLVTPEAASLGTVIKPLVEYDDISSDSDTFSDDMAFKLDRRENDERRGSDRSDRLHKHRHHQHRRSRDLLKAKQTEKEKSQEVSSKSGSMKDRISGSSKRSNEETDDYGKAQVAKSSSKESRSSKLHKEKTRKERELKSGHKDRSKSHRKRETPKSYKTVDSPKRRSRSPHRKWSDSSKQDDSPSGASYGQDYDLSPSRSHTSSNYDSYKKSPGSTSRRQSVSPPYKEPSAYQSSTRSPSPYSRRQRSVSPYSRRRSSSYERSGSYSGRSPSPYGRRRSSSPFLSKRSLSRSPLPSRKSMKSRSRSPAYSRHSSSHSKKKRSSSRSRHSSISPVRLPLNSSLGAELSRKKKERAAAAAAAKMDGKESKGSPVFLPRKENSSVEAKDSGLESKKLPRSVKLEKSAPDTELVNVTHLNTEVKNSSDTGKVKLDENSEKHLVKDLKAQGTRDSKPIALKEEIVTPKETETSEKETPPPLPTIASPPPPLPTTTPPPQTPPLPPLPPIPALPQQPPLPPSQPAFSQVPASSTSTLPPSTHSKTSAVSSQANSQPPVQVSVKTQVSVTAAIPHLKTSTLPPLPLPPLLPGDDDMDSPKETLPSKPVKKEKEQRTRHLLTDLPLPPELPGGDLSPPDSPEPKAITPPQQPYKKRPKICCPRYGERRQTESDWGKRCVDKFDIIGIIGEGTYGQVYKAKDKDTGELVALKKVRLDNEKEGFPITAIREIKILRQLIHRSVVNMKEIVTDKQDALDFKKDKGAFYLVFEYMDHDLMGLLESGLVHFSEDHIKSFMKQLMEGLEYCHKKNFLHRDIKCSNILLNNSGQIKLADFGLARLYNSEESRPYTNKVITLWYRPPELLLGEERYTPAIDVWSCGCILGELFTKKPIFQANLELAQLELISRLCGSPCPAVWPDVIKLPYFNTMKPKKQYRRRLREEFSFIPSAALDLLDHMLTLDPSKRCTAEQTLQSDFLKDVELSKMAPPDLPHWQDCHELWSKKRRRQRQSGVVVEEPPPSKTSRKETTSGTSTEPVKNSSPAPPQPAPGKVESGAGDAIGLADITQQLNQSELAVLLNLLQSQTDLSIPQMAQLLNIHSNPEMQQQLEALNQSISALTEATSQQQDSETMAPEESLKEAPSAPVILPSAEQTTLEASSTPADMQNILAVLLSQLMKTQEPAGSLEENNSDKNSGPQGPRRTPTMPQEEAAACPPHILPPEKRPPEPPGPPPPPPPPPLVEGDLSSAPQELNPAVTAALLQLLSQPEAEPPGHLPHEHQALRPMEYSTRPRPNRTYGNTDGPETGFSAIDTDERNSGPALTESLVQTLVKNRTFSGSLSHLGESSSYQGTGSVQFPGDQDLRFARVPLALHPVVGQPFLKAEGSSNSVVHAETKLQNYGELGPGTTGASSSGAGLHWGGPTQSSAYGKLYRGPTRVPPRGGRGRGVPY
Sequence of CDK12 (O75909 whole entry partner): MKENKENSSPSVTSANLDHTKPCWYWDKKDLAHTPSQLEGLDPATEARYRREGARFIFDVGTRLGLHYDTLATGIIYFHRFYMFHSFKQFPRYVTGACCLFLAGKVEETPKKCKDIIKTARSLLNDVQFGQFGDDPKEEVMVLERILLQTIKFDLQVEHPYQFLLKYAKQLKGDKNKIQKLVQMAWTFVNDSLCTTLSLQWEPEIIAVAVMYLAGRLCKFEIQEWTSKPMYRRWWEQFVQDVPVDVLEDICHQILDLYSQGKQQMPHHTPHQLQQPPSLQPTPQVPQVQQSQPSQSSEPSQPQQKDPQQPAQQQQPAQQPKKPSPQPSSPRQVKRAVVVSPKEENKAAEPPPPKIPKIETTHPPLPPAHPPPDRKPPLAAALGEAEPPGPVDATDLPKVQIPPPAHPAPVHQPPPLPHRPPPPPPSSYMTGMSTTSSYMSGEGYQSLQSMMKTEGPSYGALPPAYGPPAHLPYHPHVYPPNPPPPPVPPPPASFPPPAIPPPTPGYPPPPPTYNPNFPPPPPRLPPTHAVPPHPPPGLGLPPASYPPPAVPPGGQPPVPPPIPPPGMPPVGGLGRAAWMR

| IC50 (read-out: IC50 μM (in range)) [µM] | inhibition at 10 µM (compound at 10 μM) [%] | Structure (SMILES) | IC50 (IC50 μM (in range)) [µM] | inhibition at 10 µM [%] |
| --- | --- | --- | --- | --- |
| < 0.01 | 94 | COc1cc(NC(=O)Cc2ccc(C34CCN(C#N)CC3C4)nc2)ncc1Cl (stereo not shown) [Compound 133] | – | – |
| < 0.01 | 96 | CC(C)(O)c1cc(NC(=O)Cc2ccc(C3=CCN(C#N)CC3)nc2)ncc1Cl [Compound 23, N-(5-chloro-4-(2-hydroxypropan-2-yl)pyridin-2-yl)-2-(1′-cyano-1′,2′,3′,6′-tetrahydro-[2,4′-bipyridin]-5-yl)acetamide] | – | – |
| < 0.01 | 93 | COc1cc(NC(=O)Cc2ccc(C3=CCN(C#N)CC3C)nc2)ncc1Cl (single isomer, unassigned) [Compound 71, N-(5-chloro-4-methoxypyridin-2-yl)-2-(1′-cyano-3′-methyl-1′,2′,3′,6′-tetrahydro-[2,4′-bipyridin]-5-yl)acetamide] | – | – |
| < 0.01 | 96 | N#CN1CCC=C(c2ccc(CC(=O)Nc3cc(O[C@H]4CCOC4)c(Cl)cn3)cn2)C1 [Compound 41, (S)-N-(5-chloro-4-((tetrahydrofuran-3-yl)oxy)pyridin-2-yl)-2-(1′-cyano-1′,2′,5′,6′-tetrahydro-[2,3′-bipyridin]-5-yl)acetamide] | – | – |
| 0.01 to 0.1 | 92 | CNC(=O)C(C)Oc1cc(NC(=O)Cc2ccc(-c3ccc(C#N)nc3)nc2)ncc1Cl (stereo not shown) [Compound 143, 2-((5-chloro-2-(2-(6′-cyano-[2,3′-bipyridin]-5-yl)acetamido)pyridin-4-yl)oxy)-N-methylpropanamide] | – | – |
| > 0.1 | 72 | CN1CCC[C@H](Oc2cc(NC(=O)Cc3ccc(C4CCN(C#N)CC4)nc3)ncc2Cl)C1 [Compound 125, (S)-N-(5-chloro-4-((1-methylpiperidin-3-yl)oxy)pyridin-2-yl)-2-(6-(1-cyanopiperidin-4-yl)pyridin-3-yl)acetamide] | – | – |
| < 0.01 | 95 | COC[C@@H](C)Oc1cc(NC(=O)Cc2ccc(C3=CCCN(C#N)C3)nc2)ncc1Cl [Compound 36, (R)-N-(5-chloro-4-((1-methoxypropan-2-yl)oxy)pyridin-2-yl)-2-(1′-cyano-1′,2′,5′,6′-tetrahydro-[2,3′-bipyridin]-5-yl)acetamide] | – | – |
| 0.01 to 0.1 | 98 | N#CN1CCC=C(c2ccc(CC(=O)Nc3ccc(F)cn3)cn2)C1 [Compound 103, 2-(1′-cyano-1′,2′,5′,6′-tetrahydro-[2,3′-bipyridin]-5-yl)-N-(5-fluoropyridin-2-yl)acetamide] | – | – |
| < 0.01 | 96 | COCC(C)Oc1cc(NC(=O)Cc2ccc(C3=CCN(C#N)CC3)nc2)ncc1Cl (stereo not shown) [Compound 14, N-(5-chloro-4-((1-methoxypropan-2-yl)oxy)pyridin-2-yl)-2-(1′-cyano-1′,2′,3′,6′-tetrahydro-[2,4′-bipyridin]-5-yl)acetamide] | – | – |
| 0.01 to 0.1 | 90 | N#CN1CCCC(c2ccc(CC(=O)Nc3cc(O[C@H]4CCOC4)c(Cl)cn3)cn2)C1 (stereo partly drawn) [Compound 95, N-(5-chloro-4-(((S)-tetrahydrofuran-3-yl)oxy)pyridin-2-yl)-2-(6-(1-cyanopiperidin-3-yl)pyridin-3-yl)acetamide] | – | – |

Further lines, the molecule ahead of its results:

| Structure (SMILES) | IC50 (read-out: IC50 μM (in range)) [µM] | inhibition at 10 µM (compound at 10 μM) [%] | IC50 (IC50 μM (in range)) [µM] | inhibition at 10 µM [%] |
| --- | --- | --- | --- | --- |
| CN(C)C(=O)Oc1cc(NC(=O)Cc2ccc(C3=CCCN(C#N)C3)nc2)ncc1Cl [Compound 77, 5-chloro-2-(2-(1′-cyano-1′,2′,5′,6′-tetrahydro-[2,3′-bipyridin]-5-yl)acetamido)pyridin-4-yl dimethylcarbamate] | – | – | < 0.01 | 79 |
| CC1CC(Oc2cc(NC(=O)Cc3ccc(C4=CCCN(C#N)C4)nc3)ncc2Cl)CCN1C (stereo not shown) [Compound 63, N-(5-chloro-4-((1,2-dimethylpiperidin-4-yl)oxy)pyridin-2-yl)-2-(1′-cyano-1′,2′,5′,6′-tetrahydro-[2,3′-bipyridin]-5-yl)acetamide] | < 0.01 | 92 | – | – |
| COC[C@H](C)Oc1cc(NC(=O)Cc2ccc(C3=CCCN(C#N)C3)nc2)ncc1Cl [Compound 35, (S)-N-(5-chloro-4-((1-methoxypropan-2-yl)oxy)pyridin-2-yl)-2-(1′-cyano-1′,2′,5′,6′-tetrahydro-[2,3′-bipyridin]-5-yl)acetamide] | < 0.01 | 95 | – | – |
| COc1cc(NC(=O)Cc2ccc(C3CCN(C#N)CC3)nc2)ncc1Cl [Compound 59, N-(5-chloro-4-methoxypyridin-2-yl)-2-(6-(1-cyanopiperidin-4-yl)pyridin-3-yl)acetamide] | < 0.01 | 89 | – | – |
| CNC(=O)[C@H](C)Oc1cc(NC(=O)Cc2ccc(-c3cnc(C#N)nc3)nc2)ncc1Cl [Compound 151, (S)-2-((5-chloro-2-(2-(6-(2-cyanopyrimidin-5-yl)pyridin-3-yl)acetamido)pyridin-4-yl)oxy)-N-methylpropanamide] | 0.01 to 0.1 | 79 | – | – |
| COCCOc1cc(NC(=O)Cc2ccc(C3=CCN(C#N)CC3)nc2)ncc1Cl [Compound 22, N-(5-chloro-4-(2-methoxyethoxy)pyridin-2-yl)-2-(1′-cyano-1′,2′,3′,6′-tetrahydro-[2,4′-bipyridin]-5-yl)acetamide] | < 0.01 | 91 | – | – |
| COc1cc(NC(=O)Cc2cnc(C3=CCCN(C#N)C3)c(OC)c2)ncc1Cl [Compound 117, N-(5-chloro-4-methoxypyridin-2-yl)-2-(1′-cyano-3-methoxy-1′,2′,5′,6′-tetrahydro-[2,3′-bipyridin]-5-yl)acetamide] | < 0.01 | 88 | – | – |
| N#CN1CC=C(c2ncc(CC(=O)Nc3ccc(Cl)cn3)cc2F)CC1 [Compound 18, N-(5-chloropyridin-2-yl)-2-(1′-cyano-3-fluoro-1′,2′,3′,6′-tetrahydro-[2,4′-bipyridin]-5-yl)acetamide] | 0.01 to 0.1 | 87 | – | – |
| CC1CC(Oc2cc(NC(=O)Cc3ccc(C4=CCCN(C#N)C4)nc3)ncc2Cl)CCN1C (single isomer, unassigned) [Compound 64, N-(5-chloro-4-((1,2-dimethylpiperidin-4-yl)oxy)pyridin-2-yl)-2-(1′-cyano-1′,2′,5′,6′-tetrahydro-[2,3′-bipyridin]-5-yl)acetamide] | < 0.01 | 92 | – | – |
| CNC(=O)C(C)Oc1cc(NC(=O)Cc2ccc(C3CCN(C#N)CC3)nc2)ncc1Cl (stereo not shown) [Compound 82, 2-((5-chloro-2-(2-(6-(1-cyanopiperidin-4-yl)pyridin-3-yl)acetamido)pyridin-4-yl)oxy)-N-methylpropanamide] | 0.01 to 0.1 | 87 | – | – |
| CNC(=O)C(C)Oc1cc(NC(=O)Cc2ccc(C3CCCN(C#N)C3)nc2)ncc1Cl (single isomer, unassigned) [Compound 86, 2-((5-chloro-2-(2-(6-(1-cyanopiperidin-3-yl)pyridin-3-yl)acetamido)pyridin-4-yl)oxy)-N-methylpropanamide] | > 0.1 | 84 | – | – |
| CCOc1cc(NC(=O)Cc2ccc(C3=CCN(C#N)CC3)nc2)ncc1Cl [Compound 20, N-(5-chloro-4-ethoxypyridin-2-yl)-2-(1′-cyano-1′,2′,3′,6′-tetrahydro-[2,4′-bipyridin]-5-yl)acetamide] | < 0.01 | 109 | – | – |
| COc1cc(NC(=O)Cc2ccc(-c3ccc(C#N)cc3)nc2)ncc1Cl [Compound 188, N-(5-chloro-4-methoxypyridin-2-yl)-2-(6-(4-cyanophenyl)pyridin-3-yl)acetamide] | > 0.1 | 65 | – | – |
